In patent publication US4153709A, “N-Heterocyclic ureas as immune regulants” (Eli Lilly and Company, priority 1977, dated 1979):

Columns and labels:
[1] = system: mouse skin graft rejection (AKR skin on C3H mice); test: Suppression of rejection of mouse-tail skin grafts (Table 19); assay type: in vivo, mice (C3H recipients, AKR donors); settings: 50 mg/kg/2 days, POT vehicle, control 19.6 ± 1.3
Source text: Compounds disclosed herein have shown activity in suppressing the rejection of mouse skin grafts. […] Albino tail skin segments (AKR strain) were grafted onto the tails of groups of ten agouti recipient mice (C3H strain). Results achieved with two therapy regimens employing 1-(6-methoxy-2-benzothiazolyl)-3-phenyl urea were as follows:
*Treatment was commenced 3 days prior to grafting and continued every 2nd
**50% polyethylene glycol, 40% corn oil, 10% Tween 80

[2] = system: graft versus host reaction; test: Graft versus host (GVH) reaction, spleen weight (Tables 20, 21); assay type: in vivo, mice (C57BL donors, F1 hybrid C57BL×C3H recipients)
Method: In this determination, […] (C57BL) mouse spleen cells are injected into mice of an F1 hybrid strain (C57BL×C3H). […] The injected cells, however, mount a reaction to the recipient's tissues due to the foreign C3H-derived antigens. As a consequence, the recipient's spleen becomes enlarged. Immunosuppressive therapy prevents or reduces this enlargement. Thus, spleen weights provide a measure of the GVH reaction and its reduction under immunosuppression.
Treated and GVH control animals receive an intraperitoneal injection of 1.2×10^9 splenic lymphocytes from the C57 donors. Spleens are weighed ten days later. Spleen weights derived from groups of recipient mice receiving genetically homologous, i.e., syngeneic cells (C57BL×C3H) provide normal control values for calculating percent inhibition in drug-treated groups. For example, mice given 13 daily topical doses of 1-(4,5,6,7-tetra-hydro-2-benzothiazolyl)-3-phenyl urea show a 62% reduction in GVH reaction relative to controls, as set forth in Table 20.
Using this procedure, three compounds from the above useful in the processes of this invention have been compared with several reference immunosuppressive drugs. Treatment levels defining the 50 percent inhibitory dose have been determined.

[3] = system: twelve histidine-auxotrophs of Salmonella typhimurium; assay type: cell-based
Method: (§1) The in vivo and in vitro mutagenic potential of 1-(6-methoxy-2-benzothiazolyl)-3-phenyl-urea was negative when tested versus the twelve histidine-auxotrophs of Salmonella typhimurium at a level of 300 mg/kg in vivo and 750 mcg/ml in vitro. Imuran and Cytoxan, compounds with immunosuppressive activity; Streptozotacin, N-nitrosodimethylamine (DMNA) and trimethylenemelamine (TEM) known mutagens and/or carcinogens; and Acetylsalicylic Acid (ASA) were used as control compounds.
The plates were read as follows:
(§2) Compounds found active in the qualitative test were further tested. The culture to be tested was grown to stationary phase in tryptone yeast broth and then diluted to a viable count of about 9×10^7 organisms per milliliter.
Eleven log4 dilutions of the test compound were made covering a range that would allow survival of nonlethal mutants. […] Final drug concentrations were calculated from 4-ml. volumes (3 ml. drug dilution +1 ml. test organism). Two of the "0" drug tubes were immediately plated at 10° dilution in minimal medium and 10^-5, 10^-6, 10^-7 dilutions in medium containing excess histidine (40 mcg/ml.) Spontaneous revertants (histidine+) were detected in the 10° dilution. Mutable population (histidine-) were detected in the 10^-5, 10^-6, and 10^-7 dilutions. […] All minimal media plates were counted. […]

[4] = system: Salmonella typhimurium G46 missense histidine-auxotroph; test: Host mediated assay (in vivo mutagenicity), G46 indicator (Table 22); parameters: species or system Salmonella typhimurium in Cox white Swiss male mice; settings: s.c.
Method: Cox white Swiss male mice 25-30 grams were used in all in vivo tests.
A. Drug Administration: Appropriate solvents were used where applicable with a solvent control run within each test. […] The organisms were grown to stationary phase, then diluted with normal saline to give an inoculum near 1×10^8 organisms per milliliter. The abdominal area of the drug-treated mouse was swabbed with alcohol and two milliliters of bacterial culture were injected into the abdominal cavity of the mouse. The mice were returned to their cages for 3-4 hours.
C. Autopsy and Recovery: The mice were sacrificed individually by cervical dislocation prior to each autopsy. The abdominal areas were soaked with ethanol. The peritoneum was bared and 2.5 ml. of sterile normal saline was injected into the peritoneal cavity using a sterile (3-ml. plastic syringe with a 20-gauge needle. After insertion, the needle is turned bevel up and the saline was expelled into the cavity; while the needle remains through the peritoneum, keeping the point of the needle in sight pressed against the peritoneal wall, the abdomen of the mouse was massaged to mix contents. The saline wash was removed from the abdominal cavity back into the syringe. The needle was removed and the contents expelled into an appropriately marked tube and iced 4° C.
D. Dilution and Plating: One-ml. samples were plated at 10° dilution on all mice to determine revertants (histidine+).
A one-milliliter sample from the untreated dilutions from control animals is plated 10^-6, 10^-7, and 10^-8 dilutions with excess histidine to determine mutable population (histidine-).

[5] = system: Salmonella typhimurium G46 missense histidine-auxotroph; assay type: cell-based; settings: 750 mcg/ml
Method: as §2
Eleven log4 dilutions of the test compound were made covering a range that would allow survival of nonlethal mutants. The dilutions were made in Spizizen's minimal media with minute amounts of histidine and biotin (20 nM) each in […]. tubes. Each tube contained 3 ml. after dilution. Replicate 1 ml. aliquots of test organism were added to each tube including six "0" drug tubes. Final drug concentrations were calculated from 4-ml. volumes (3 ml. drug dilution +1 ml. test organism). Two of the "0" drug tubes were immediately plated at 10° dilution in minimal medium and 10^-5, 10^-6, 10^-7 dilutions in medium containing excess histidine (40 mcg/ml.) Spontaneous revertants (histidine+) were detected in the 10° dilution. Mutable population (histidine-) were detected in the 10^-5, 10^-6, and 10^-7 dilutions. All remaining dilutions were incubated in a Dubonoff shaker at 37° C. for 4 hr., then iced at 4° C. […] A 1-ml. aliquot from each "0" control was also plated at 10^-6, 10^-7, and 10^-8 dilutions in media with excess histidine to detect growth of mutable population (histidine-); normally there are 3-4 generations of the mutable population. All minimal media plates were counted. A dose response increase in revertants above spontaneous background indicated mutagenic potential of a test compound. […] Lethality has occurred to both populations, histidine+ and histidine-, at the same compound levels in all drugs tested to date.
The results are recorded as mutants test/mutants control.

[6] = system: twelve histidine-auxotrophs of Salmonella typhimurium; assay type: in vivo, Salmonella typhimurium in Cox white Swiss male mice; settings: 300 mg/kg
Method: as §1
A. Drug Administration: Appropriate solvents were used where applicable with a solvent control run within each test. The compounds to be tested were given either subcutaneously along the backbone of the mouse (0.1 ml.) or by oral gavage (0.5 ml.) B. Inoculation Technique: The histidine- cultures G46, C209, C3076, and D3056 used as the TA15 series have lost pathogenicity to mice because of absence or decrease in the lipopolysaccharide coat. The organisms were grown to stationary phase, then diluted with normal saline to give an inoculum near 1×10^8 organisms per milliliter. The abdominal area of the drug-treated mouse was swabbed with alcohol and two milliliters of bacterial culture were injected into the abdominal cavity of the mouse. The mice were returned to their cages for 3-4 hours.
C. Autopsy and Recovery: The mice were sacrificed individually by cervical dislocation prior to each autopsy. […]

COc1ccc2nc(NC(=O)Nc3ccccc3)sc2c1 [Table 11: phenyl, 6-CH3 O, S, 1-(6-methoxy-2-benzothiazolyl)-3-phenyl urea]
Allograft Survival (Days ± S.E.) ([1]; oral): 25.2 ± 2.0 Days
Allograft Survival (Days ± S.E.) ([1]; subcutaneous): 27.7 ± 1.0 Days
Percent GVH Inhibition ([2]; 1 mg/kg × 13, s.c.): 22%
Percent GVH Inhibition ([2]; 2 mg/kg × 13, s.c.): 58%
in vitro mutagenic potential ([3]; 750 mcg/ml): negative
mutagenicity for point mutations (overall statement) ([3]; histidine- auxotrophs of Salmonella typhimurium): non-mutagenic
IN VIVO mutants test/mutants control ([4]; 3 mg/kg): .95
IN VIVO mutants test/mutants control ([4]; 30 mg/kg): .95
IN VIVO mutants test/mutants control ([4]; 300 mg/kg, MT/MC of 3 would indicate mutagenic potential): 1.2
IN VIVO mutants test/mutants control ([4]; .3 mg/kg): 1.25
IN VITRO QUANTITATIVE MT/MC [5]: .90
in vivo mutagenic potential [6]: negative
